According to Sander's compilation of Henry's law constants (doi:10.1016/s0021-9673(98)00877-2):

Experiment: Henry solubility constant Hcp at 298.15 K (mol/(m3 Pa))
Conditions: reference: Dewulf et al. (1999)

| SMILES | Henry solubility constant Hcp |
| --- | --- |
| C=C(Cl)Cl [1,1-dichloroethene] | 0.00037 |
| Cc1ccccc1 [methylbenzene] | 0.0015 |
| Clc1cc(Cl)cc(Cl)c1 [1,3,5-trichlorobenzene] | 0.0018 |
| CC(Cl)CCl (centres undefined) [1,2-dichloropropane] | 0.0035 |
| COc1ccccc1 [methoxybenzene] | 0.026 |
| C1CCCCC1 [cyclohexane] | 5.2e-05 |
| Clc1ccccc1 [chlorobenzene] | 0.0025 |
| ClC(Cl)=C(Cl)C(Cl)=C(Cl)Cl [hexachlorobutadiene] | 0.00062 |
| ClC=C(Cl)Cl [trichloroethene] | 0.00095 |
| Clc1cccc(Cl)c1Cl [1,2,3-trichlorobenzene] | 0.0036 |
| c1ccc2ccccc2c1 [naphthalene] | 0.013 |
| ClCC(Cl)Cl [1,1,2-trichloroethane] | 0.011 |
| O=[N+]([O-])c1ccccc1 [nitrobenzene] | 0.023 |
| Fc1ccccc1 [fluorobenzene] | 0.0014 |
